Laboratory results: ChEMBL document CHEMBL1921774, “Evaluation of 18F-labeled benzodioxine piperazine-based dopamine D4 receptor ligands: lipophilicity as a determinate of nonspecific binding” (J Med Chem, 2011)

Experiments:
Pancreas [1] = assay: Biodistribution in NMRI mouse pancreas at 1.1 to 2.6 MBq, iv after 10 mins by gamma counting; type: ADME, organism-based; details: in vivo
Kidney [2] = assay: Biodistribution in NMRI mouse kidney at 1.1 to 2.6 MBq, iv after 5 mins by gamma counting; type: ADME, organism-based; details: in vivo
Brain [3] = assay: Biodistribution in NMRI mouse brain at 1.1 to 2.6 MBq, iv after 30 mins by gamma counting; type: ADME, organism-based; details: in vivo, 0.5 h
Heart [4] = assay: Biodistribution in NMRI mouse heart at 1.1 to 2.6 MBq, iv after 30 mins by gamma counting; type: ADME, organism-based; details: in vivo, 0.5 h
Lung [5] = assay: Biodistribution in NMRI mouse lung at 1.1 to 2.6 MBq, iv after 15 mins by gamma counting; type: ADME, organism-based; details: in vivo, 0.25 h
Heart [6] = assay: Biodistribution in NMRI mouse heart at 1.1 to 2.6 MBq, iv after 5 mins by gamma counting; type: ADME, organism-based; details: in vivo
Kidney [7] = assay: Biodistribution in NMRI mouse kidney at 1.1 to 2.6 MBq, iv after 15 mins by gamma counting; type: ADME, organism-based; details: in vivo, 0.25 h
Bone [8] = assay: Biodistribution in NMRI mouse bone at 1.1 to 2.6 MBq, iv after 10 mins by gamma counting; type: ADME, organism-based, Bone element; details: in vivo
[9] = Chemical stability of the compound on […] oxide gel on TLC plate assessed as half life; type: physicochemical
Pancreas [10] = assay: Biodistribution in NMRI mouse pancreas at 1.1 to 2.6 MBq, iv after 5 mins by gamma counting; type: ADME, organism-based; details: in vivo
Bone [11] = assay: Biodistribution in NMRI mouse bone at 1.1 to 2.6 MBq, iv after 5 mins by gamma counting; type: ADME, organism-based, Bone element; details: in vivo
Spleen [12] = assay: Biodistribution in NMRI mouse spleen at 1.1 to 2.6 MBq, iv after 30 mins by gamma counting; type: ADME, organism-based; details: in vivo, 0.5 h
Serum = assay: Metabolic stability in NMRI mouse serum assessed as remaining radioactivity at 1.1 to 2.6 MBq, iv by TLC analysis; type: ADME, organism-based; details: in vivo
Brain [13] = assay: Drug metabolism in NMRI mouse brain at […], iv measured 10 mins post injection; type: ADME, organism-based; details: in vivo
Liver [14] = assay: Biodistribution in NMRI mouse liver at 1.1 to 2.6 MBq, iv after 30 mins by gamma counting; type: ADME, organism-based; details: in vivo, 0.5 h
Heart [15] = assay: Biodistribution in NMRI mouse heart at 1.1 to 2.6 MBq, iv after 15 mins by gamma counting; type: ADME, organism-based; details: in vivo, 0.25 h
Blood [16] = assay: Biodistribution in NMRI mouse blood at 1.1 to 2.6 MBq, iv after 10 mins by gamma counting; type: ADME, organism-based; details: in vivo
Blood [17] = assay: Biodistribution in NMRI mouse blood at 1.1 to 2.6 MBq, iv after 30 mins by gamma counting; type: ADME, organism-based; details: in vivo, 0.5 h
Pancreas [18] = assay: Biodistribution in NMRI mouse pancreas at 1.1 to 2.6 MBq, iv after 30 mins by gamma counting; type: ADME, organism-based; details: in vivo, 0.5 h
Lung [19] = assay: Biodistribution in NMRI mouse lung at 1.1 to 2.6 MBq, iv after 30 mins by gamma counting; type: ADME, organism-based; details: in vivo, 0.5 h
Liver [20] = assay: Biodistribution in NMRI mouse liver at 1.1 to 2.6 MBq, iv after 10 mins by gamma counting; type: ADME, organism-based; details: in vivo
Pancreas [21] = assay: Biodistribution in NMRI mouse pancreas at 1.1 to 2.6 MBq, iv after 15 mins by gamma counting; type: ADME, organism-based; details: in vivo, 0.25 h
Heart [22] = assay: Biodistribution in NMRI mouse heart at 1.1 to 2.6 MBq, iv after 10 mins by gamma counting; type: ADME, organism-based; details: in vivo
Intestine [23] = assay: Biodistribution in NMRI mouse intestine at 1.1 to 2.6 MBq, iv after 5 mins by gamma counting; type: ADME, organism-based; details: in vivo
Spleen [24] = assay: Biodistribution in NMRI mouse spleen at 1.1 to 2.6 MBq, iv after 15 mins by gamma counting; type: ADME, organism-based; details: in vivo, 0.25 h
Bone [25] = assay: Biodistribution in NMRI mouse bone at 1.1 to 2.6 MBq, iv after 30 mins by gamma counting; type: ADME, organism-based, Bone element; details: in vivo, 0.5 h
[26] = Chemical stability of the compound on silica gel on TLC plate assessed as half life; type: physicochemical
Lung [27] = assay: Biodistribution in NMRI mouse lung at 1.1 to 2.6 MBq, iv after 10 mins by gamma counting; type: ADME, organism-based; details: in vivo
Bone [28] = assay: Biodistribution in NMRI mouse bone at 1.1 to 2.6 MBq, iv after 15 mins by gamma counting; type: ADME, organism-based, Bone element; details: in vivo, 0.25 h
Intestine [29] = assay: Biodistribution in NMRI mouse intestine at 1.1 to 2.6 MBq, iv after 30 mins by gamma counting; type: ADME, organism-based; details: in vivo, 0.5 h
Liver [30] = assay: Biodistribution in NMRI mouse liver at 1.1 to 2.6 MBq, iv after 5 mins by gamma counting; type: ADME, organism-based; details: in vivo
Blood [31] = assay: Biodistribution in NMRI mouse blood at 1.1 to 2.6 MBq, iv after 5 mins by gamma counting; type: ADME, organism-based; details: in vivo
Spleen [32] = assay: Biodistribution in NMRI mouse spleen at 1.1 to 2.6 MBq, iv after 10 mins by gamma counting; type: ADME, organism-based; details: in vivo
Brain [33] = assay: Biodistribution in NMRI mouse brain at 1.1 to 2.6 MBq, iv after 5 mins by gamma counting; type: ADME, organism-based; details: in vivo
Spleen [34] = assay: Biodistribution in NMRI mouse spleen at 1.1 to 2.6 MBq, iv after 5 mins by gamma counting; type: ADME, organism-based; details: in vivo
Kidney [35] = assay: Biodistribution in NMRI mouse kidney at 1.1 to 2.6 MBq, iv after 10 mins by gamma counting; type: ADME, organism-based; details: in vivo
Lung [36] = assay: Biodistribution in NMRI mouse lung at 1.1 to 2.6 MBq, iv after 5 mins by gamma counting; type: ADME, organism-based; details: in vivo
Kidney [37] = assay: Biodistribution in NMRI mouse kidney at 1.1 to 2.6 MBq, iv after 30 mins by gamma counting; type: ADME, organism-based; details: in vivo, 0.5 h
Brain [38] = assay: Biodistribution in NMRI mouse brain at 1.1 to 2.6 MBq, iv after 10 mins by gamma counting; type: ADME, organism-based; details: in vivo
Brain [39] = assay: Biodistribution in NMRI mouse brain at 1.1 to 2.6 MBq, iv after 15 mins by gamma counting; type: ADME, organism-based; details: in vivo, 0.25 h
Intestine [40] = assay: Biodistribution in NMRI mouse intestine at 1.1 to 2.6 MBq, iv after 15 mins by gamma counting; type: ADME, organism-based; details: in vivo, 0.25 h
Intestine [41] = assay: Biodistribution in NMRI mouse intestine at 1.1 to 2.6 MBq, iv after 10 mins by gamma counting; type: ADME, organism-based; details: in vivo
Liver [42] = assay: Biodistribution in NMRI mouse liver at 1.1 to 2.6 MBq, iv after 15 mins by gamma counting; type: ADME, organism-based; details: in vivo, 0.25 h
Blood [43] = assay: Biodistribution in NMRI mouse blood at 1.1 to 2.6 MBq, iv after 15 mins by gamma counting; type: ADME, organism-based; details: in vivo, 0.25 h

- Drug uptake (Pancreas [1]): 11.1 % ID/g
- Drug uptake (Kidney [2]): 8.23 % ID/g
- Drug uptake (Brain [3]): 1.47 % ID/g
- Drug uptake (Heart [4]): 1.13 % ID/g
- Drug uptake (Lung [5]): 4.79 % ID/g
- Drug uptake (Heart [6]): 1.8 % ID/g
- Drug uptake (Kidney [7]): 4.67 % ID/g
- Drug uptake (Bone [8]): 2.54 % ID/g
- half-life [9]: 50 min
- Drug uptake (Pancreas [10]): 8.36 % ID/g
- Drug uptake (Bone [11]): 2.03 % ID/g
- Drug uptake (Spleen [12]): 3.13 % ID/g
- Stability (Serum): > 98%
- Drug metabolism (Brain [13]): Active
- Drug uptake (Liver [14]): 7.79 % ID/g
- Drug uptake (Heart [15]): 0.58 % ID/g
- Drug uptake (Blood [16]): 1.29 % ID/g
- Drug uptake (Blood [17]): 0.53 % ID/g
- Drug uptake (Pancreas [18]): 7.43 % ID/g
- Drug uptake (Lung [19]): 2.68 % ID/g
- Drug uptake (Liver [20]): 6.78 % ID/g
- Drug uptake (Pancreas [21]): 6.88 % ID/g
- Drug uptake (Heart [22]): 0.52 % ID/g
- Drug uptake (Intestine [23]): 2.16 % ID/g
- Drug uptake (Spleen [24]): 3.19 % ID/g
- Drug uptake (Bone [25]): 0.93 % ID/g
- half-life [26]: 15 min
- Drug uptake (Lung [27]): 4.84 % ID/g
- Drug uptake (Bone [28]): 2.7 % ID/g
- Drug uptake (Intestine [29]): 4.47 % ID/g
- Drug uptake (Liver [30]): 4.13 % ID/g
- Drug uptake (Blood [31]): 1.62 % ID/g
- Drug uptake (Spleen [32]): 3.6 % ID/g
- Drug uptake (Brain [33]): 4.93 % ID/g
- Drug uptake (Spleen [34]): 4.42 % ID/g
- Drug uptake (Kidney [35]): 5.86 % ID/g
- Drug uptake (Lung [36]): 12.99 % ID/g
- Drug uptake (Kidney [37]): 6.03 % ID/g
- Drug uptake (Brain [38]): 2.85 % ID/g
- Drug uptake (Brain [39]): 2.27 % ID/g
- Drug uptake (Intestine [40]): 2.51 % ID/g
- Drug uptake (Intestine [41]): 2.68 % ID/g
- Drug uptake (Liver [42]): 5.67 % ID/g
- Drug uptake (Blood [43]): 1.23 % ID/g
SMILES: [18F]c1ccc(CN2CCN(c3ccc4c(c3)OCCO4)CC2)cn1
